Test results published in ChEMBL document CHEMBL1201862, “PubChem BioAssay data set” (2004).
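The compound was tested at five concentrations on cells cultured in 96-well plates, with a 48-hour exposure period. The concentration for 50% growth inhibition is given as GI50.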 Activity calls are given as the source filed them. No stated cut-off is given here; in the data, active = GI50 up to about 1.1 µM and inactive = higher.

Assays:
Experiment in all cases: inhibition of tumour cell growth, NCI panel, 48 h
[1] = test system: HL-60
[2] = test system: HT-29
[3] = test system: HCC 2998
[4] = test system: MDA-MB-231
[5] = test system: MDA-MB-435
[6] = test system: Malme-3M
[7] = test system: NCI-H460
[8] = test system: HCT-116
[9] = test system: SN12C
[10] = test system: IGROV-1
[11] = test system: RXF 393
[12] = test system: UACC-62
[13] = test system: UACC-257
[14] = test system: UO-31
[15] = test system: A498
[16] = test system: HOP-92
[17] = test system: OVCAR-4
[18] = test system: OVCAR-5
[19] = test system: MOLT-4

Measured: GI50

c1ccc(CCNc2ccccn2)nc1
inactive: [1] > 100 µM | [2] > 100 µM | [3] > 100 µM | [4] > 100 µM | [5] > 100 µM | [6] > 100 µM | [7] > 100 µM | [8] > 100 µM | [9] > 100 µM | [10] > 100 µM | [11] > 100 µM | [12] > 100 µM | [13] > 100 µM | [14] > 100 µM | [15] > 100 µM | [16] > 100 µM | [17] > 100 µM | [18] > 100 µM

Cc1csc(-n2c(C)nc3cc(Cl)ccc3c2=O)n1
inactive: [1] > 100 µM | [2] > 100 µM | [3] > 100 µM | [4] > 100 µM | [5] > 100 µM | [7] > 100 µM | [8] > 100 µM | [19] 46.7 µM | [9] > 100 µM | [10] 33.2 µM | [11] > 100 µM | [12] > 100 µM | [13] 91.6 µM | [14] 58.2 µM | [15] > 100 µM | [16] 10.4 µM | [17] 45.4 µM | [18] > 100 µM

COc1ccc(-c2nc(SCC(=O)N/N=C/c3ccc(O)c(OC)c3)[nH]c2-c2ccc(OC)cc2)cc1
inactive: [1] 11.2 µM | [2] 21.9 µM | [3] 17.7 µM | [4] 24.7 µM | [5] 32.4 µM | [6] 37.8 µM | [7] 23.2 µM | [8] 17.9 µM | [9] 19.1 µM | [11] 18.6 µM | [12] 14.1 µM | [13] 25.5 µM | [14] 34.7 µM | [15] 18.8 µM | [16] 23.7 µM | [17] 40.9 µM | [18] 27.8 µM

Nc1ccc(/C=C/c2ccc3cccnc3c2)cc1
inactive: [1] 4.61 µM | [2] > 100 µM | [3] > 100 µM | [4] > 100 µM | [5] > 100 µM | [6] > 100 µM | [7] > 100 µM | [8] > 100 µM | [19] > 100 µM | [9] > 100 µM | [11] > 100 µM | [12] > 100 µM | [13] > 100 µM | [14] > 100 µM | [15] > 100 µM | [16] > 100 µM | [18] > 100 µM

O=CNNC(=O)CSc1nc2ccc(I)cc2c(=O)n1Cc1ccccc1
active: [19] 0.361 µM
inactive: [1] 47.5 µM | [2] 34.9 µM | [3] 26.8 µM | [4] 29.3 µM | [5] 40.5 µM | [7] 20 µM | [8] 20.4 µM | [9] 28.4 µM | [10] 32.3 µM | [11] 29.1 µM | [12] 20.3 µM | [13] 22.9 µM | [14] 1.72 µM | [15] 37.9 µM | [16] 25.4 µM | [17] 40.4 µM | [18] 61.8 µM
